The term melting point denotes the temperature of the solid-liquid transition. By boiling point is commonly meant the temperature of boiling at a given pressure.

Conditions in the first series: not given
On to `C#CCCOC1CCCCO1` (centres undefined), for which the ready biodegradability entry is “readily biodegradable”.
For the compound `COc1c2c(cc3oc(=O)ccc13)OC(C)(C)C=C2`, the melting point is 133 °C.
The same measure, in the same setting: to `CCCC[N+](CCCC)(CCCC)CCCC.[I-]` belongs 148 °C.
Still for that read-out and setting: with `O=C(O)Cc1ccc(O)c(O)c1` the figure was 128 °C.
Compound `CCC(C(N)=O)n1nnc2ccccc21` (centres undefined) came in with a melting point of 143 °C.
As to `CCCCOC(=O)CCCCC(=O)OCCCC`, the melting point is -32.4 °C and the ready biodegradability result is on record as “readily biodegradable”.
Take `CCCCCCCCCCCCCCCC#N`: the boiling point came out at 333 °C and the melting point was determined as 31 °C.
On to `COCCOCCOCCO`, for which the boiling point was found to be 249 °C, the melting point was -44 °C and the ready biodegradability entry is “readily biodegradable”.
On to `CCCCC(C)(C)C`, for which the log10 biodegradation half-life (days) amounted to 0.602, the log10 vapour pressure (mmHg) came out at 1.53 and the melting point was -121 °C.
`CC(C)OP(=O)(OC(C)C)OC(C)C` came in with a boiling point of 219 °C.
Consider `CCCCc1c(C)nc(NCC)nc1O`, for which the log10 vapour pressure (mmHg) was -5.7 and the melting point is 160 °C.
On to `CCN(CCO)CCO`, for which the boiling point amounted to 247 °C, the melting point is -50 °C and the ready biodegradability entry is given as “not readily biodegradable”.
`COC(=O)c1ccccc1Br` registered a boiling point of 252 °C.
For `CC1(C)C(C(=O)OC(C#N)c2cccc(Oc3ccccc3)c2)C1(C)C` (centres undefined), the log10 vapour pressure (mmHg) is -5.26 and the melting point came out at 47 °C.
For the compound `c1ccc2cc3c(ccc4cc5ccccc5cc43)cc2c1`, the melting point is 257 °C.
With `Cl.NCCc1ccc(O)cc1`, the melting point stood at 272 °C.
In turn, `c1cc2c3c(c1)CCC3CCC2` (centres undefined) had a boiling point of 249 °C and a melting point of 12.8 °C.
`OC(COc1ccccc1)COc1ccccc1` came in with a melting point of 81.5 °C.
`Cc1c(F)c(F)c(C)c(F)c1F` showed a boiling point of 144 °C and a melting point of 36 °C.
Taken in the same sequence, the figures for `CCCCCCCCCCCCCCCCCC1CCCCC1` were 397 °C and 38 °C.
Compound `Cc1cccc(C(=O)c2ccccc2)c1` displayed a boiling point of 317 °C.
`Cc1ccc(C(=O)Cl)cc1`: the boiling point amounted to 226 °C and the melting point is -3 °C.
The matching figures for `Cc1ccc(Cl)c([N+](=O)[O-])c1`: 261 °C and 7 °C.
`COC(=O)N/N=C/c1c[n+]([O-])c2ccccc2[n+]1[O-]` returned a melting point of 240 °C.
Same read-out and setting: with `O=C(O)c1ccc(F)cc1` the figure was 185 °C.
Compound `CCCC(C)CCC(C)C` (centres undefined) displayed a boiling point of 158 °C and a log10 biodegradation half-life (days) of 0.301.
`O=C(O)c1cc(Oc2ccc(C(F)(F)F)cc2Cl)ccc1[N+](=O)[O-]` showed a log10 Koc (L/kg) of 2.05 and a melting point of 150 °C.
As to `CC(C=CC=CC(C)=CC=CC(C)=CC=C1C(C)=CC(=O)CC1(C)C)=CC=CC(C)=CC=C1C(C)=CC(=O)CC1(C)C`, the melting point amounted to 219 °C.
As to `CCN(C)N=O`, the boiling point was 170 °C.
Take `O=[N+]([O-])c1ccc(Cl)cc1`: the boiling point came out at 242 °C, the log10 Henry constant (atm·m³/mol) is -5.31, the log10 vapour pressure (mmHg) was -1.66 and the melting point was 83.5 °C. The ready biodegradability entry is listed as “not readily biodegradable”.
With `NCC(CC(=O)O)c1ccc(Cl)cc1` (centres undefined), the melting point was 207 °C.
Compound `COc1ccccc1CN` registered a boiling point of 229 °C.
`CCC(C(N)=O)n1nc2ccccc2n1` (centres undefined): the melting point is 128 °C.
With `S=c1[nH]c2ccccc2[nH]1`, the melting point is 298 °C and the ready biodegradability entry is recorded as “not readily biodegradable”.
Regarding `CC[Si](Cl)(CC)CC`, the boiling point came to 144 °C and the log10 vapour pressure (mmHg) was 0.83.
For the compound `CCCCCCCCCCCCCCCCCC(N)=O`, the melting point is 109 °C.
For `NC(=S)C(N)=S`, the log10 vapour pressure (mmHg) was -5.78.
Take `COc1c(O)c(Cl)c(Cl)c(Cl)c1Cl`: the log10 Koc (L/kg) amounted to 2.85 and the log10 vapour pressure (mmHg) was -4.08.
`CCCC(C)(Cl)Cl` yielded a melting point of 128 °C.
`CSc1ccc(O)cc1`: the ready biodegradability result is “not readily biodegradable”.
Turning to `CCCCCCCCCCCCC`, the boiling point came out at 235 °C, the log10 biodegradation half-life (days) turned out to be 1.08, the log10 vapour pressure (mmHg) was -1.25 and the melting point was -5.3 °C. In addition, the ready biodegradability result is listed as “readily biodegradable”.
Turning to `Clc1cc(Cl)c(-c2cc(Cl)c(Cl)cc2Cl)cc1Cl`, the log10 Henry constant (atm·m³/mol) was -4.64, the log10 Koa was 9.73, the log10 Koc (L/kg) amounted to 5.58 and the log10 vapour pressure (mmHg) is -5.46.
Compound `CC1(C)C2C=C[C@]1(C)CC2` had a boiling point of 146 °C and a melting point of 113 °C.
Regarding `CC(=O)OCC(C)C`, the boiling point was found to be 116 °C, the log10 Henry constant (atm·m³/mol) was -3.34, the log10 Koa was 3.45 and the log10 vapour pressure (mmHg) came to 1.25. Also, the melting point is -98.8 °C and the ready biodegradability entry is given as “readily biodegradable”.
As for `CNC(C)CCC=C(C)C` (centres undefined), the boiling point was found to be 177 °C.
Regarding `C=C(C)C(=O)OCCOCCOC(=O)C(=C)C`, the ready biodegradability result is “readily biodegradable”.
As for `CCN(N)CC`, the boiling point worked out at 99 °C.
For `CCCCCCBr`, the boiling point came out at 155 °C, the log10 vapour pressure (mmHg) worked out at 0.591 and the melting point is -84.7 °C.

The same series, now with this note: fish.
For `O=[N+]([O-])c1cc(Cl)ccc1Cl`, the log10 BCF stood at 2.05 and the log10 biotransformation half-life (days) was determined as 0.56.
The matching figures for `ClCCOCCCl`: 1 and -0.81.
The matching figures for `CCC(C)=NO`: 0.7 and -1.33.
The matching figures for `O=[N+]([O-])c1ccc(Cl)cc1`: 1.3 and -0.48.
Compound `COc1c(O)c(Cl)c(Cl)c(Cl)c1Cl` had a log10 BCF of 3.08.
As to `CCCCCCCCCCCCC`, the log10 biotransformation half-life (days) turned out to be 1.03.
In the case of `Clc1cc(Cl)c(-c2cc(Cl)c(Cl)cc2Cl)cc1Cl`, the log10 BCF is 5.43 and the log10 biotransformation half-life (days) is 2.55.

The values above are taken from the OPERA property sets (Mansouri et al. 2018).
